Source: US9422233B2 (priority 2011, dated 2016)

How the values were obtained:
MMP-9 = MMP-9 (Homo sapiens, UniProt P14780); assay: biochemical
human recombinant FAAH = molecular target: T1, human recombinant FAAH (Homo sapiens, UniProt O00519); assay: biochemical
T1 construct: purchased Cayman Chemical (Ann Arbor, Mich.)
T1 sequence (O00519 1-579): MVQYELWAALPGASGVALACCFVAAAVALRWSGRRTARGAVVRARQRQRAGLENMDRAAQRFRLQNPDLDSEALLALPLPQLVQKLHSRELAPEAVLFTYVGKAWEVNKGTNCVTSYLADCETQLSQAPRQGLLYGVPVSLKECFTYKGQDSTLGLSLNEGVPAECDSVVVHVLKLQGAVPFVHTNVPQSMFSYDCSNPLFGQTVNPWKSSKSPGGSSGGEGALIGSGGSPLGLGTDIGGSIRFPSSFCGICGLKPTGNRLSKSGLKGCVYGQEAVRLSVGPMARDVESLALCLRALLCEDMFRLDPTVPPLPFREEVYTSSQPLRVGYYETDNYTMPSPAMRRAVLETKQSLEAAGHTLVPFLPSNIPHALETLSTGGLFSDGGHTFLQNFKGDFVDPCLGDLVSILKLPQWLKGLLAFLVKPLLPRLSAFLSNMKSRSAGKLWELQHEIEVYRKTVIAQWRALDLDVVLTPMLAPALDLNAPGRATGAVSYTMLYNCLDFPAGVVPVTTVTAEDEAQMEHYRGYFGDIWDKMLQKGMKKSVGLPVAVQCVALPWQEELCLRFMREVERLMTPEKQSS

rabbit corneas = format: cell-based

Chain of MMP-9 (P14780 94-707, species assumed): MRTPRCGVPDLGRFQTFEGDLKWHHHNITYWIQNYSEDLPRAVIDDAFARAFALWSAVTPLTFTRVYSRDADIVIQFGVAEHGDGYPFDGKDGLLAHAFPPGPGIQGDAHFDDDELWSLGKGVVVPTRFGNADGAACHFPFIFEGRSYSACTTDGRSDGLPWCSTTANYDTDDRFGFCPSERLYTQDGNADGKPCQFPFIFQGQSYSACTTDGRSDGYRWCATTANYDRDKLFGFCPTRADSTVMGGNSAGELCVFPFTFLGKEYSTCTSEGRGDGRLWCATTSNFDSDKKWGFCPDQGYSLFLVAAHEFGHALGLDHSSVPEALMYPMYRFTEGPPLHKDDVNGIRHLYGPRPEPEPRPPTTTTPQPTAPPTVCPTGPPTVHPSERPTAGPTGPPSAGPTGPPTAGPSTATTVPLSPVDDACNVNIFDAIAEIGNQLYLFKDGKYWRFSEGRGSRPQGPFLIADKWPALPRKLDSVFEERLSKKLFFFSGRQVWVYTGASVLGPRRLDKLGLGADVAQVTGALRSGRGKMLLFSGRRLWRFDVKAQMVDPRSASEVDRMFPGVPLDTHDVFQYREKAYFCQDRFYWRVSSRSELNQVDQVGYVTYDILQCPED

Row | SMILES | IC50 (MMP-9) [µM] | IC50 (human recombinant FAAH) [µM] | basement membrane attached post-treatment (rabbit corneas) [%] | epithelial-stromal separation (detachment) (rabbit corneas) [%]
1 | CCCCCCCCCCCCCCCCOC(=O)N(O)Cc1ccc(O)c(OC)c1 [Compound 4a, Hexadecyl-N-hydroxy(4-hydroxy-3-methoxybenzyl)carbamate] | 120 |  |  | 
2 | CCCCCCCCCCCCOC(=O)N(O)Cc1ccc(O)c(OC)c1 [Compound 4b, Dodecyl-N-hydroxy(4-hydroxy-3-methoxybenzyl)carbamate] |  | 67 |  | 
3 | CCCCCCCCOC(=O)N(O)Cc1ccc(O)c(OC)c1 [Compound 4c, Octyl-N-hydroxy(4-hydroxy-3-methoxybenzyl)carbamate] |  | 73 |  | 
4 | COc1cc(CN(O)C(=O)Oc2ccccc2)ccc1O [Compound 4g, Phenyl-N-hydroxy(4-hydroxy-3-methoxybenzyl)carbamate] |  | 10 |  | 
5 | CCCCCCCC/C=C\CCCCCCCC(=O)N(O)Cc1ccc(O)c(OC)c1 [Compound 5a, (9Z)—N-Hydroxy-N-[(4-hydroxy-3-methoxyphenyl)methyl]-9-Octadecenamide] |  | 71 | 70 | 30
6 | CCCCCCCCC(CCCCCC)C(=O)N(O)Cc1ccc(O)c(OC)c1 (stereo not drawn) [Compound 5c, 2-hexyl-N-hydroxy-N-(4-hydroxy-3-methoxybenzyl)decanamide] | 99 |  |  | 
7 | CCCCCCCN(O)C(=O)Cc1ccc(O)c(OC)c1 [Compound 10a, N-heptyl-N-hydroxy-2-(4-hydroxy-3-methoxyphenyl)acetamide] |  | 192 |  | 
8 | CCCCCCCCN(O)C(=O)Cc1ccc(O)c(OC)c1 [Compound 10b, N-octyl-N-hydroxy-2-(4-hydroxy-3-methoxyphenyl)acetamide] | 68 |  | 85 | 15
